Assay [1] relates to Female Hartley guinea pigs. Nature of the assay: Suppression of urinary output in a guinea pig model of water-loaded polyuria. It counts as in vivo. The following applies: oral, total urinary output up to 3 hours after water load, relative to vehicle group. On the procedure:
The water-loaded polyuria model, commonly used as a model for polyuria, was used to evaluate the inhibitory effect of the test compounds on urinary output in the following manner. Female Hartley guinea pigs (Japan SLC Co., Ltd.) were acclimated in a metabolic cage (Natsume Seisakusho Co., Ltd.) in a fasted condition from the evening of one day before the test. On the following day, 20 mL/kg of distilled water was administered orally as a water load, and then the guinea pigs were placed back in the metabolic cage and the total urinary output up to 3 hours after the water load was downloaded into a personal computer via an electronic balance (GX-200, A&D Corporation) and a data collection and analysis system (PowerLab®, ADInstruments), and then analyzed using analyzing software (LabChart®, ADInstruments). Test compounds dissolved in 0.5% methylcellulose solution (vehicle) or vehicle only were administered orally immediately before water loading depending on the kinetics of the compound. Based on the total urinary output at 3 hours after administration of the test compound and vehicle groups, the percentage inhibition of urinary output of the test compound group (%) was calculated relative to the urinary output of the vehicle group.

The target of another assay is human mPGES-1 (Homo sapiens (Human), UniProt O14684). Nature of the assay: mPGES-1 inhibitory activity test. It counts as biochemical. The note with it: for IC50: microsomes of CHO-K1 cells expressing human mPGES-1, PGH2 1 μM, PGE2 by HTRF, read-out: mPGES-1 inhibition (IC50 nM); for inhibition at 0.01 µM: 10 nM test compound; for inhibition at 0.1 µM: 100 nM test compound. The essentials: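 PGE2 formation was quantified by HTRF and reported as percent inhibition at 10 and 100 nM compound or as IC50. The 60-second reaction at 4° C used 1 μM PGH2, after a 20-minute 4° C preincubation of compound (1% DMSO final) with glutathione-supplemented (2.5 mM, pH 7.4) microsomes. The microsomes were from transiently transfected CHO-K1 cells expressing human mPGES-1.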
Sequence of human mPGES-1 (O14684 whole entry): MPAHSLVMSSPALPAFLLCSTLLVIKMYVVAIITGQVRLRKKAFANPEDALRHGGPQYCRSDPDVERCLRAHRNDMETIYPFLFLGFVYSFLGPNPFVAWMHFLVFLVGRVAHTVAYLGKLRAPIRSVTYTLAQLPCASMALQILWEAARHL

For another assay, the system named is human A549 cells. Nature of the assay: Inhibition test of PGE2 production using human A549 cells. The note with it: IL-1β stimulated A549 cells, 24 h, PGE2 by HTRF, read-out: A549 cell inhibition of PGE2 production IC50. It counts as cell-based. The method, boiled down:
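PGE2 (HTRF) and PGF2a (EIA) were quantified in medium after 24 h, 37°C IL-1β stimulation (5 ng/well) of human A549 cells that had received test compound 60 min beforehand (0.1% DMSO, 3% FBS RPMI). IC50 relative to the window between IL-1β-stimulated and unstimulated controls.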
(In general: In TR-FRET formats the signal depends on donor and acceptor labels being close together.)

For the molecule `Cc1ccc(-n2ncc3c(NC(=O)c4cc(CNC(=O)C(C)(C)C)ccc4Cl)cccc32)nn1` [Example 59, 2-Chloro-5-{[(2,2-dimethylpropanoyl)amino]methyl}-N-[1-(6-methylpyridazin-3-yl)-1H-indazol-4-yl]benzamide], the “Suppression (%) of urinary output” value in assay [1] is recorded as 21.2%. For the same molecule, the IC50 (commonly the concentration that gives 50% inhibition) at human mPGES-1 was 34.2 nM; in the assay on human A549 cells it was 24.4 nM.
On the same counts, the results for `CC(C)(C)C(=O)NCc1ccc(Cl)c(C(=O)Nc2cccc3c2cnn3-c2ccc(C3CC3)nc2)c1.Cl` [Example 69, 2-Chloro-N-[1-(6-cyclopropylpyridin-3-yl)-1H-indazol-4-yl]-5-{[(2,2-dimethylpropanoyl)amino]methyl}benzamide hydrochloride] are 57.8%, 3.8 nM and 2.1 nM.
For `CC(C)(C)C(=O)NCc1ccc(Cl)c(C(=O)Nc2cccc3c2cnn3-c2ccnc(C3CC3)c2)c1.Cl` [Example 70, 2-Chloro-N-[1-(2-cyclopropylpyridin-4-yl)-1H-indazol-4-yl]-5-{[(2,2-dimethylpropanoyl)amino]methyl}benzamide hydrochloride], the “Suppression (%) of urinary output” value in assay [1] amounted to 25.1%. The IC50 on human mPGES-1 came to 4.3 nM; in the assay on human A549 cells, 1 nM.
For `Cc1ccc(-n2ncc3c(NC(=O)c4cc(CNC(=O)C(C)(C)C)ccc4C(F)(F)F)cccc32)cn1.Cl` [Example 88, 5-{[(2,2-Dimethylpropanoyl)amino]methyl}-N-[1-(6-methylpyridin-3-yl)-1H-indazol-4-yl]-2-(trifluoromethyl)benzamide hydrochloride], in assay [1], the “Suppression (%) of urinary output” value amounted to 34.5%. Moreover, the values for the concentration for half-maximal inhibition (IC50) at human mPGES-1 and with human A549 cells were 1.5 nM and 68.2 nM, respectively.
`CC(C)(CO)C(=O)NCc1ccc(Cl)c(C(=O)Nc2cccc3c2cnn3-c2cccc(OC(F)(F)F)c2)c1` [Example 125, 2-Chloro-5-{[(3-hydroxy-2,2-dimethylpropanoyl)amino]methyl}-N-{1-[3-(trifluoromethoxy)phenyl]-1H-indazol-4-yl}benzamide]: the “Suppression (%) of urinary output” value in assay [1] is reported as 58.0%. Besides, the inhibition (commonly the change of the read-out against control, counted positive when it falls) at 0.01 µM against human mPGES-1 was 62%. Besides, the IC50 with human A549 cells stood at 3.5 nM.
Turning to `COc1ccc(-n2ncc3c(NC(=O)c4cc(CNC(=O)C5(C(F)(F)F)CC5)ccc4Cl)cccc32)cc1C(F)(F)F` [Example 263, 2-Chloro-N-{1-[4-methoxy-3-(trifluoromethyl)phenyl]-1H-indazol-4-yl}-5-[({[1-(trifluoromethyl)cyclopropyl]carbonyl}amino)methyl]benzamide], at human mPGES-1, 0.01 µM produced 89% inhibition and the inhibition at 0.1 µM amounted to 85%. Also, the IC50 in the assay with human A549 cells was 0.3 nM.
At human mPGES-1, `COc1ccc(-n2ncc3c(NC(=O)c4cc(CNC(=O)C5(O)CC5)ccc4Cl)cccc32)cc1C(F)(F)F` [Example 264, 2-Chloro-5-({[(1-hydroxycyclopropyl)carbonyl]amino}methyl)-N-{1-[4-methoxy-3-(trifluoromethyl)phenyl]-1H-indazol-4-yl}benzamide] showed an inhibition at 0.01 µM of 94% and an inhibition at 0.1 µM of 97%. Also, the IC50 in the assay on human A549 cells came out at 5.1 nM.
For `COCC(=O)NCc1ccc(Cl)c(C(=O)Nc2cccc3c2cnn3-c2ccc(OC)c(C(F)(F)F)c2)c1` [Example 265, 2-Chloro-5-{[(methoxyacetyl)amino]methyl}-N-{1-[4-methoxy-3-(trifluoromethyl)phenyl]-1H-indazol-4-yl}benzamide] the same measures were 95%, 100% and 2.7 nM.
On human mPGES-1, `COc1ccc(-n2ncc3c(NC(=O)c4cc(CNC(=O)C5CCCC5)ccc4Cl)cccc32)cn1` [Example 270, 2-Chloro-5-{[(cyclopentylcarbonyl)amino]methyl}-N-[1-(6-methoxypyridin-3-yl)-1H-indazol-4-yl]benzamide] yielded an inhibition at 0.01 µM of 64% and an inhibition at 0.1 µM of 88%. Also, in the assay with human A549 cells, the half-maximal inhibitory concentration (IC50) was determined as 3.5 nM.
As for `COc1ccc(-n2ncc3c(NC(=O)c4cc(CNC(=O)C5(C(F)(F)F)CC5)ccc4Cl)cccc32)cn1` [Example 271, 2-Chloro-N-[1-(6-methoxypyridin-3-yl)-1H-indazol-4-yl]-5-[({[1-(trifluoromethyl)cyclopropyl]carbonyl}amino)methyl]benzamide], on human mPGES-1, at 0.01 µM the inhibition was 50% and the inhibition at 0.1 µM was 90%. For the same molecule, in the assay on human A549 cells, the IC50 stood at 3 nM.
At human mPGES-1, `COc1ccc(-n2ncc3c(NC(=O)c4cc(CNS(=O)(=O)C5CC5)ccc4Cl)cccc32)cn1` [Example 275, 2-Chloro-5-{[(cyclopropylsulfonyl)amino]methyl}-N-[1-(6-methoxypyridin-3-yl)-1H-indazol-4-yl]benzamide] gave an inhibition at 0.01 µM of 66% and an inhibition at 0.1 µM of 91%. The IC50 in the assay on human A549 cells came to 3.9 nM.
Take `COc1ccc(-n2ncc3c(NC(=O)c4cc(CNC(=O)C(C)(C)C)ccc4C(F)(F)F)cccc32)cn1` [Example 276, 5-{[(2,2-Dimethylpropanoyl)amino]methyl}-N-[1-(6-methoxypyridin-3-yl)-1H-indazol-4-yl]-2-(trifluoromethyl)benzamide]: the “Suppression (%) of urinary output” value in assay [1] is 35.1%. On human mPGES-1, this molecule yielded an inhibition at 0.01 µM of 68% and an inhibition at 0.1 µM of 94%. Further, the concentration for half-maximal inhibition (IC50) in the assay with human A549 cells came out at 3 nM.
At human mPGES-1, `Cc1cc(-n2ncc3c(NC(=O)c4cc(CNC(=O)C5CCCC5)ccc4Cl)cccc32)cc(C)n1` [Example 278, 2-Chloro-5-{[(cyclopentylcarbonyl)amino]methyl}-N-[1-(2,6-dimethylpyridin-4-yl)-1H-indazol-4-yl]benzamide] yielded an inhibition at 0.01 µM of 72% and an inhibition at 0.1 µM of 90%. Further, the 50% inhibitory concentration (IC50) in the assay with human A549 cells is 3.1 nM.
On the same counts, the results for `Cc1cc(-n2ncc3c(NC(=O)c4cc(CNC(=O)C(C)(C)C)ccc4C(F)(F)F)cccc32)cc(C)n1` [Example 283, 5-{[(2,2-Dimethylpropanoyl)amino]methyl}-N-[1-(2,6-dimethylpyridin-4-yl)-1H-indazol-4-yl]-2-(trifluoromethyl)benzamide] are 72%, 96% and 1.9 nM.
As to `CC(C)(C)C(=O)NCc1ccc(Cl)c(C(=O)Nc2cccc3c2cnn3C2CC2)c1` [Example 284, 2-Chloro-5-{[(2,2-dimethylpropanoyl)amino]methyl}-N-(1-cyclopropyl-1H-indazol-4-yl)benzamide], the inhibition at 0.01 µM against human mPGES-1 amounted to 79%. For the same molecule, the IC50 in the assay with human A549 cells was determined as 9.6 nM.
In the case of `CC(C)(C)C(=O)NCc1ccc(C(F)(F)F)c(C(=O)Nc2cccc3c2cnn3C2CC2)c1` [Example 285, 5-{[(2,2-Dimethylpropanoyl)amino]methyl}-N-(1-cyclopropyl-1H-indazol-4-yl)-2-(trifluoromethyl)benzamide], the inhibition at 0.01 µM against human mPGES-1 is 75%. In addition, the IC50 with human A549 cells is 7.7 nM.
